In the supplement of paper PMC10331698:
± gives the standard deviation of the averaged measurements.

Legend:
Assay in all cases: level (log10 ratio to DMSO vehicle control); higher = higher biomarker level / cell amount than vehicle control
[1] = compound: FC(F)(F)COC(OCC(F)(F)F)OCC(F)(F)F [tris(Trifluoroethoxy)methane]; details: in DMSO
Description: (§1)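 BioMAP Diversity Plus panel of 12 human primary cell co-culture systems (3C, 4H, LPS, SAg, BT, BF4T, BE3C, CASM3C, HDF3CGF, KF3CT, MyoF, Mphg). Compounds were added 1 h before stimulation and left for 24 h (MyoF 48 h; BT 72 h for soluble read-outs or 6 d for IgG). Biomarkers were read by ELISA, cytotoxicity by SRB, PBMC viability and proliferation by Alamar Blue. Each well value was divided by the mean of 8 DMSO control wells on the same plate and log10 transformed; duplicate blinded samples were tested at 4 concentrations.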

[2] = compound: C=C(C)C(=O)OCC(F)(F)C(F)(F)C(F)(F)F [2,2,3,3,4,4,4-Heptafluorobutyl methacrylate]; details: in DMSO
Description: as §1

[3] = compound: C=CC(=O)OCC(F)(F)C(F)(F)C(F)(F)C(F)(F)C(F)(F)C(F)(F)C(F)(F)C(F)F [1H,1H,9H-Perfluorononyl acrylate]; details: in DMSO
Description: as §1

[4] = compound: O=P(O)(O)CCC(F)(F)C(F)(F)C(F)(F)C(F)(F)C(F)(F)C(F)(F)F [2-(Perfluorohexyl)ethylphosphonic acid]; details: in DMSO
Description: as §1

Tetrafluorosuccinic acid = compound: O=C(O)C(F)(F)C(F)(F)C(=O)O [Tetrafluorosuccinic acid]; details: in DMSO
Description: as §1

[5] = compound: FC(F)(I)C(F)(F)C(F)(F)C(F)(F)C(F)(F)C(F)(F)I [1,6-Diiodoperfluorohexane]; details: 6700 nM; in DMSO
Description: as §1

[6] = compound: OCCC(F)(F)C(F)(F)C(F)(F)C(F)(F)C(F)(F)C(F)(F)C(F)(F)C(F)(F)F [8:2 Fluorotelomer alcohol]; details: 6700 nM; in DMSO
Description: as §1

[7] = compound: OCCCC(F)(F)C(F)(F)C(F)(F)C(F)(F)C(F)(F)C(F)(F)C(F)(F)C(F)(F)F [3-(Perfluorooctyl)propanol]; details: 6700 nM; in DMSO
Description: as §1

Test System	level (log10) ([1]; 6700 nM)	level (log10) ([1]; 20000 nM)	level (log10) ([1]; 60000 nM)	level (log10) ([2]; 6700 nM)	level (log10) ([2]; 20000 nM)	level (log10) ([2]; 60000 nM)	level (log10) ([3]; 6700 nM)	level (log10) ([3]; 20000 nM)	level (log10) ([3]; 60000 nM)	level (log10) ([4]; 6700 nM)	level (log10) ([4]; 20000 nM)	level (log10) ([4]; 60000 nM)	level (log10) (Tetrafluorosuccinic acid; 6700 nM)	level (log10) (Tetrafluorosuccinic acid; 20000 nM)	level (log10) (Tetrafluorosuccinic acid; 60000 nM)	level (log10) [5]	level (log10) [6]	level (log10) [7]
HDF3CGF:CXCL8/IL-8	-0.003 ± 0.0028	-0.0005 ± 0.005	0.002 ± 0.0099	0.0005 ± 0.0021	-0.0045 ± 0.0092	0.006 ± 0.0028	-0.009 ± 0.0042	0.0075 ± 0.021	0.0085 ± 0.0035	-0.005 ± 0.0042	-0.0125 ± 0.00071	0.012 ± 0.0071	-0.01 ± 0.0085	-0.004 ± 0.0085	-0.0055 ± 0.0078	-0.276	0.005 ± 0.0099	-0.0145 ± 0.0092
HDF3CGF:CXCL9/MIG	0.007 ± 0.0099	0.002 ± 0.0071	-0.017 ± 0.018	-0.0185 ± 0.005	-0.024 ± 0.0071	-0.0395 ± 0.011	-0.0315 ± 0.025	-0.083 ± 0.025	-0.215 ± 0.071	-0.003 ± 0.0099	0.008 ± 0.017	-0.006 ± 0.0057	-0.0285 ± 0.029	-0.039 ± 0.065	-0.06 ± 0.086	-0.463	0.004 ± 0.0028	-0.0895 ± 0.054
HDF3CGF:CXCL10/IP-10	0.0005 ± 0.0092	-0.002 ± 0.0071	-0.015 ± 0.0057	-0.017 ± 0.0071	-0.021 ± 0.0071	-0.024 ± 0.016	-0.0105 ± 0.0064	-0.041 ± 0.048	-0.15 ± 0.096	0.014 ± 0.0028	0.0505 ± 0.0078	0.0525 ± 0.037	-0.0225 ± 0.0078	-0.027 ± 0.04	-0.0425 ± 0.064	-0.315	-0.039 ± 0.0085	-0.275 ± 0.057
HDF3CGF:CXCL11/I-TAC	-0.01 ± 0.0014	-0.0125 ± 0.021	-0.0145 ± 0.026	-0.0085 ± 0.023	-0.01 ± 0.034	-0.0405 ± 0.018	-0.014 ± 0.0014	-0.066 ± 0.033	-0.214 ± 0.11	-0.005	0.0325 ± 0.0021	0.0425 ± 0.021	-0.03 ± 0.035	-0.0215 ± 0.005	-0.0565 ± 0.071	-0.434	-0.04 ± 0.024	-0.367 ± 0.096
HDF3CGF:Collagen I	0.0165 ± 0.061	0.0025 ± 0.042	0.0345 ± 0.03	-0.0145 ± 0.0021	-0.0495 ± 0.064	0.016 ± 0.033	-0.0115 ± 0.016	-0.0075 ± 0.056	-0.0605 ± 0.11	-0.016 ± 0.0042	-0.0365 ± 0.005	-0.0865 ± 0.09	-0.0515 ± 0.025	-0.0235 ± 0.018	-0.0305 ± 0.029	0.053	-0.022 ± 0.0042	0.161 ± 0.077
HDF3CGF:Collagen III	-0.013 ± 0.0071	-0.0205 ± 0.0092	0.0075 ± 0.016	-0.0545 ± 0.1	-0.075 ± 0.031	-0.034 ± 0.048	-0.096 ± 0.03	-0.102 ± 0.022	-0.124 ± 0.016	0.0135 ± 0.0078	0.0075 ± 0.018	-0.0305 ± 0.012	-0.058 ± 0.057	-0.0805 ± 0.059	-0.118 ± 0.02	-0.358	-0.0025 ± 0.032	-0.12 ± 0.0092
HDF3CGF:EGFR	-0.0265 ± 0.015	-0.016 ± 0.054	-0.016 ± 0.0085	-0.018 ± 0.09	-0.0115 ± 0.057	-0.064 ± 0.041	-0.019 ± 0.023	0.017 ± 0.0014	0.045 ± 0.013	-0.012 ± 0.034	-0.0255 ± 0.005	0.0195 ± 0.025	-0.0065 ± 0.033	-0.008 ± 0.0028	0.029 ± 0.038	-0.044	0.037 ± 0.0085	-0.31 ± 0.071
HDF3CGF:M-CSF	-0.0005 ± 0.00071	-0.0125 ± 0.005	0.022 ± 0.037	0.0085 ± 0.00071	0.0255 ± 0.0078	0.0135 ± 0.029	-0.039	-0.079 ± 0.041	-0.254 ± 0.076	0.0025 ± 0.0092	0.0265 ± 0.0092	0.013 ± 0.014	-0.0505 ± 0.018	-0.0735 ± 0.0035	-0.048 ± 0.0099	-0.454	-0.044 ± 0.028	-0.258 ± 0.0092
HDF3CGF:MMP-1	-0.005 ± 0.0099	-0.005 ± 0.0014	0 ± 0.0085	0 ± 0.023	0.0015 ± 0.0064	-0.0005 ± 0.016	0.006 ± 0.0057	0.03 ± 0.0057	0.0375 ± 0.016	0.006 ± 0.0071	-0.0095 ± 0.013	-0.0045 ± 0.067	0.0295 ± 0.015	0.0315 ± 0.021	0.0195 ± 0.022	-0.303	0.034 ± 0.0014	-0.0315 ± 0.044
HDF3CGF:PAI-I	-0.0115 ± 0.0021	-0.025 ± 0.023	0.0175 ± 0.018	-0.045 ± 0.011	-0.018 ± 0.1	0.0135 ± 0.0035	0.0785 ± 0.076	0.025 ± 0.04	0.0165 ± 0.1	-0.027 ± 0.023	-0.027 ± 0.0014	-0.0925 ± 0.021	-0.0295 ± 0.0078	-0.009 ± 0.0014	0.003 ± 0.037	-0.662	-0.0555 ± 0.0035	-0.391 ± 0.07
HDF3CGF:Proliferation 72hr	-0.038 ± 0.081	0.001 ± 0.038	-0.006 ± 0.038	-0.0095 ± 0.087	0.001 ± 0.042	0.008 ± 0.0071	-0.072 ± 0.079	-0.454 ± 0.021	-0.666 ± 0.15	-0.009 ± 0.068	0.119 ± 0.021	0.191 ± 0.03	-0.08 ± 0.076	-0.135 ± 0.061	-0.0935 ± 0.069	-0.919	-0.374 ± 0.26	-1.04 ± 0.033
HDF3CGF:SRB	0.003 ± 0.073	0.0335 ± 0.0035	0.02 ± 0.038	0.007 ± 0.02	-0.002 ± 0.0099	0.017 ± 0.0085	-0.017 ± 0.059	-0.011 ± 0.072	-0.0635 ± 0.079	-0.025 ± 0.045	0.0355 ± 0.029	0.001 ± 0.05	-0.0125 ± 0.011	-0.013 ± 0.03	0.007 ± 0.044	-0.644	-0.0335 ± 0.035	-0.397 ± 0.28
HDF3CGF:TIMP-1	-0.0195 ± 0.047	0.011 ± 0.02	-0.001 ± 0.042	-0.0075 ± 0.0078	-0.007 ± 0.024	-0.019 ± 0.03	0.001 ± 0.042	-0.0005 ± 0.04	-0.0165 ± 0.047	-0.0115 ± 0.018	0.0035 ± 0.005	0.0545 ± 0.06	-0.05 ± 0.023	-0.017 ± 0.0042	-0.0155 ± 0.035	-0.077	-0.013 ± 0.0042	-0.105 ± 0.052
HDF3CGF:TIMP-2	-0.0165 ± 0.029	-0.002 ± 0.037	-0.0105 ± 0.005	-0.008 ± 0.0014	-0.0105 ± 0.022	-0.0245 ± 0.019	0.025 ± 0.092	-0.0355 ± 0.032	-0.1545 ± 0.00071	0.0095 ± 0.042	0.0365 ± 0.036	0.0305 ± 0.036	-0.052 ± 0.042	-0.069 ± 0.025	-0.1 ± 0.018	-0.012	-0.0475 ± 0.079	0.029 ± 0.013
KF3CT:CCL2/MCP-1	-0.021 ± 0.035	-0.029 ± 0.0085	0.0315 ± 0.052	0.026 ± 0.014	0.008 ± 0.0085	-0.0155 ± 0.0035	-0.0075 ± 0.043	-0.057 ± 0.024	-0.137 ± 0.085	-0.0405 ± 0.019	-0.0515 ± 0.023	-0.043 ± 0.013	-0.05 ± 0.0085	-0.042 ± 0.021	-0.0065 ± 0.07	-0.251	-0.0165 ± 0.025	-0.077 ± 0.025
